Laboratory results taken from patent EP2949653A1, “ISOXAZOLE DERIVATIVES AS LEUKOTRIENE BIOSYNTHESIS INHIBITORS” (Banoglu, Erden, priority 2014, dated 2015).
“And” between values parts separate entries of the source, which are not always exact repeats. Identical values can stand only once. Like-named read-outs stand apart in the source and are kept apart here.

Legend:
[1] = target: T1, purified 5-LO (Homo sapiens, UniProt P09917); experiment: Purified / human recombinant 5-LO activity (cell-free); format: biochemical
T1 sequence (P09917 1-674): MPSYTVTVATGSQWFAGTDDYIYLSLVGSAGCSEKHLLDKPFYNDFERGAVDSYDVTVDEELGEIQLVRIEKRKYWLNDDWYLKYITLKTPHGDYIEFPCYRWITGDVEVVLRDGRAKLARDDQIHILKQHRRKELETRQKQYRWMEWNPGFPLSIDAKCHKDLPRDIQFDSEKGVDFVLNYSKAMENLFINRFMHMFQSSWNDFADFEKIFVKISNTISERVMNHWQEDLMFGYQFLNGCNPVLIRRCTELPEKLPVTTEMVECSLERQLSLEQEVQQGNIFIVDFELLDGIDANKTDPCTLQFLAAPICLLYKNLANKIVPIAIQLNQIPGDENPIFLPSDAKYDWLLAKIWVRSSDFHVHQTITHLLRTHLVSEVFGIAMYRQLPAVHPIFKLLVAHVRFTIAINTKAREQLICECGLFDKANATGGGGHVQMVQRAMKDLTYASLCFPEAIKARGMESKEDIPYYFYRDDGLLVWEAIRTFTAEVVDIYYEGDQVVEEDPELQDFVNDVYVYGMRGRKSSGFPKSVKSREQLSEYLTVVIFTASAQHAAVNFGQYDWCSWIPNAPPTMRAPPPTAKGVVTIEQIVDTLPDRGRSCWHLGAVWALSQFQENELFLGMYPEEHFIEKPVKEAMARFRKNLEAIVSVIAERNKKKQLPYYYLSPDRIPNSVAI
Procedure: Cell based and cell-free assays carried out in biological studies, immunofluorescence microscopy analysis and zymosan-induced peritonitis in mice are performed as described hereinabove (Pegola, C. and et al., British J. Pharmacology, 2014, D01:10.1111/bph.12625). In the cell based assays (intact neutrophils or monocytes), 5-LO mediated product formation is started, after pre-incubation with test compounds (or control DMSO) for 15 min. at 37 °C, with addition of Ca-ionophore A23187 (2.5 µM) to the fresh 5 x 10^6 neutrophils or monocytes suspended in 1 ml of PGC buffer (phosphate buffered saline (PBS) solution containing 1 mg ml^-1 glucose and 1mM CaCl2, pH 7.4). After the incubation for 10 min. at 37 °C, the reaction is ended with addition of 1 ml of methanol, and 30 µL 1 N HCl, 200 ng prostaglandin B1 and 500 µL PBS are added to the mixture. In cell-free assays (isolated 5-LO and cell homogenates), human recombinant 5-LO protein or 40,000g supernatant is added to 1 ml of 5-LO reaction mixture (PBS, pH 7.4, 1 mM EDTA, 1 mM ATP), and then incubated with test compounds (or control DMSO) for 10 min. at 4°C, heated to 37 °C and 2 mM CaCl2 as well as AA at certain concentrations are added. The reaction is ended as described for the cell-based assays. Resulting 5-LO mediated products are extracted and analysed by the known method of high pressure liquid chromatography (HPLC) (Pergola, C. Proc Natl. Acad. Sci. U.S.A. 2008, 105, 19881). 5-LO mediated product formation (LTB4 and all trans isomers, and 5 (S)-hydro(pero)xy-6-trans-8, 11, 14-cis-eicosatetraenoic acid, 5-H(p)ETE) is expressed as ng per 10^6 cell. Cysteinyl-LTs have not been analyzed because that the amount of C4, D4 and E4 and LTB4 oxidation products are below the detection limit.
Compounds were tested in intact human neutrophils stimulated with 2.5 µM A23187 under cell based conditions and on purified 5-LO under cell free conditions. ^aData are given as remaining activity as a percentage of control (100%) at 10 µM or 1 µM inhibitor concentrations (means ± SE, n = 3-6).
9hj was added 15 min before addition of 2 mM Ca^2+ plus 3 µM, 10 µM and 30 µM AA. 100% controls correspond to 200.35 ng mL^-1 for 3 µM AA, 514.36 ng mL^-1 for 10 µM AA and 537.73 ng mL^-1 for 30 µM AA.

[2] = test system: 5-LO mediated product synthesis; experiment: 5-LO mediated product synthesis in neutrophils stimulated with LPS plus fMLP; format: cell-based; conditions: Homo sapiens, Neutrophil
[3] = test system: 5-LO mediated product synthesis; experiment: 5-LO mediated product synthesis in monocytes stimulated with LPS plus fMLP; format: cell-based; conditions: Homo sapiens, Monocyte
[4] = test system: 5-LO mediated product synthesis; experiment: 5-LO mediated product synthesis in neutrophils under cell-stress (NaCl or diamide); format: cell-based; conditions: in the presence of cell-stress (0.3 M NaCl or 0.25 mM diamide), human neutrophils (Figure 4A-B)
Procedure: Inhibitory activity of compound 9hj on 5-LO mediated product synthesis in human neutrophils is shifted to the right by factor 10 in the presence of cell-stress (i.e., 0.3 M NaCl or 0.25 mM diamide), which is typical for non-redox type 5-LO inhibitors or FLAP inhibitors (Figure 4A-B). To intact neutrophils, 0.3 M sodium chloride (NaCl) or vehicle (DMSO) was added 3 min before addition of 9hj at 37°C. After addition of 9hj for another 10 min at 37°C, cells were stimulated with 20 µM AA for 10 min at 37°C. Data are expressed as percentage of vehicle control (0.1% DMSO). 100% controls correspond to 174.41 ng mL^-1 for 0.3 M NaCl and 50.73 ng mL^-1 for control (DMSO) (Figure 4A). To intact neutrophils, 0.25 mM diamide or vehicle (DMSO) was added 5 min before addition of 9hj at 37°C (Figure 4b). After addition of 9hj for another 15 min at 37°C, cells were stimulated with 2.5 µM A23187 plus 20 µM AA for 10 min at 37°C. Data are expressed as percentage of vehicle control (0.1% DMSO). 100% controls correspond to 1148.61 ng mL^-1 for 0.25 mM diamide and 802.06 ng mL^-1 for control (DMSO) (Figure 4B).

[5] = test system: PMNL; experiment: Cytotoxicity to PMNL; format: cell-based; conditions: within 1 hour at 10 µM
[6] = target: T2, microsomal prostaglandin E synthase-1 (mPGES-1) (Homo sapiens, UniProt O14684); experiment: mPGES-1 inhibition; format: biochemical
T2 sequence (O14684 1-152): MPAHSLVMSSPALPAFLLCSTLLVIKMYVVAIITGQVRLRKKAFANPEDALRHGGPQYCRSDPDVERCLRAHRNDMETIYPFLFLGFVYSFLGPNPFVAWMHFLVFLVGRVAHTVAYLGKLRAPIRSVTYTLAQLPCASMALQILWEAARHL
Procedure: Compound 9hj inhibited microsomal prostaglandin E synthase-1 (mPGES-1) with IC50 of 5 µM.

IC50 ([1]; human recombinant 5-LO, at 3, 10 and 30 µM substrate AA (Figure 5), read-out: mean IC50 activity of isolated 5-LO): 2 µM
IC50 ([1]; purified 5-LO under cell free conditions, mean ± SE, n = 3-4, read-out: Inhibition of purified 5-LO activity IC50 (µM) cell-free): 8 µM and 8.01 µM
IC50 [2]: 0.01 µM
IC50 [3]: 0.008 µM
IC50 [6]: 5 µM
Compound: O=C(O)c1noc(-c2ccc(OCc3ccc4ccccc4n3)cc2)c1-c1ccc(Cl)cc1 [Compound 9hj, 4-(4-Chlorophenyl)-5-(4-(quinolin-2-ylmethoxy)phenyl)isoxazole-3-carboxylic acid]
Inhibitory activity shifted to the right by factor [4]: 10
cytotoxicity to PMNL [5]: not cytotoxic
